Measurements from US20190292189A1, “LIM KINASE INHIBITORS” (VIRONGY, LLC, priority 2016, published 2019).
Like-named read-outs stand apart in the source and are kept apart here. Each block holds one compound with its values, some of them ahead of it.

Assays:
ROCK-II = ROCK-II (Homo sapiens, UniProt O75116); assay: ROCK-II biochemical counter-screen
Limk1 = Limk1 (Homo sapiens, UniProt P53667); assay: Limk1 biochemical assay (Reaction Biology, 10-dose IC50); parameters: His; purchased Reaction Biology Corporation; host or cells: insect cells; settings: for Limk1 inhibition: compared with 14a, values only in FIG. 4
[1] = Plasma pharmacokinetics studies on rats; settings: rats; for AUC (iv) / Cl (iv) / T1/2 (iv) / Yd (iv) / Cmax: iv dosing 1 mg/kg; for F (%) (po): po dosing 2 mg/kg; for Cmax: read-out: Cmax (iv)
Description: In vivo pharmacokinetics (PK) studies were conducted for selected compounds during the whole optimization at various stages in order to identify structural elements that are favorable for in vivo applications, and/or to evaluate the feasibility of optimized Limk inhibitors for animal studies.

[2] = Table 4, means of ≥2 experiments, read-out: IC50 (nM) ROCK-II
[3] = Table 4, means of ≥2 experiments, read-out: IC50 (nM) Limk1
[4] = Table 3, means of ≥2 experiments, read-out: IC50 (nM) ROCK-II
[5] = Table 1, means of ≥2 experiments, read-out: IC50 (nM) ROCK-II
[6] = Table 1, means of ≥2 experiments, read-out: IC50 (nM) Limk1
[7] = Table 3, means of ≥2 experiments, read-out: IC50 (nM) Limk1

Chain of Limk1 (P53667 285-638): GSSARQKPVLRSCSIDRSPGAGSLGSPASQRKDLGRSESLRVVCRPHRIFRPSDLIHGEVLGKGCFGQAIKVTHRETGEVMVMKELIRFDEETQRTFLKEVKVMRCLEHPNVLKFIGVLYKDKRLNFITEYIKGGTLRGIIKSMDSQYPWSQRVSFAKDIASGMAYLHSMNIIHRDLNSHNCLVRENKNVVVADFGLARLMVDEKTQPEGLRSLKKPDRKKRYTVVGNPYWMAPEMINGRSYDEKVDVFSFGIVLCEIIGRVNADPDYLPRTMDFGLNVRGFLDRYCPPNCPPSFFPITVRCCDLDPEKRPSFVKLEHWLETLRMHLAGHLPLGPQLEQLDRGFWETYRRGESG
Chain of ROCK-II (O75116 whole entry, species assumed): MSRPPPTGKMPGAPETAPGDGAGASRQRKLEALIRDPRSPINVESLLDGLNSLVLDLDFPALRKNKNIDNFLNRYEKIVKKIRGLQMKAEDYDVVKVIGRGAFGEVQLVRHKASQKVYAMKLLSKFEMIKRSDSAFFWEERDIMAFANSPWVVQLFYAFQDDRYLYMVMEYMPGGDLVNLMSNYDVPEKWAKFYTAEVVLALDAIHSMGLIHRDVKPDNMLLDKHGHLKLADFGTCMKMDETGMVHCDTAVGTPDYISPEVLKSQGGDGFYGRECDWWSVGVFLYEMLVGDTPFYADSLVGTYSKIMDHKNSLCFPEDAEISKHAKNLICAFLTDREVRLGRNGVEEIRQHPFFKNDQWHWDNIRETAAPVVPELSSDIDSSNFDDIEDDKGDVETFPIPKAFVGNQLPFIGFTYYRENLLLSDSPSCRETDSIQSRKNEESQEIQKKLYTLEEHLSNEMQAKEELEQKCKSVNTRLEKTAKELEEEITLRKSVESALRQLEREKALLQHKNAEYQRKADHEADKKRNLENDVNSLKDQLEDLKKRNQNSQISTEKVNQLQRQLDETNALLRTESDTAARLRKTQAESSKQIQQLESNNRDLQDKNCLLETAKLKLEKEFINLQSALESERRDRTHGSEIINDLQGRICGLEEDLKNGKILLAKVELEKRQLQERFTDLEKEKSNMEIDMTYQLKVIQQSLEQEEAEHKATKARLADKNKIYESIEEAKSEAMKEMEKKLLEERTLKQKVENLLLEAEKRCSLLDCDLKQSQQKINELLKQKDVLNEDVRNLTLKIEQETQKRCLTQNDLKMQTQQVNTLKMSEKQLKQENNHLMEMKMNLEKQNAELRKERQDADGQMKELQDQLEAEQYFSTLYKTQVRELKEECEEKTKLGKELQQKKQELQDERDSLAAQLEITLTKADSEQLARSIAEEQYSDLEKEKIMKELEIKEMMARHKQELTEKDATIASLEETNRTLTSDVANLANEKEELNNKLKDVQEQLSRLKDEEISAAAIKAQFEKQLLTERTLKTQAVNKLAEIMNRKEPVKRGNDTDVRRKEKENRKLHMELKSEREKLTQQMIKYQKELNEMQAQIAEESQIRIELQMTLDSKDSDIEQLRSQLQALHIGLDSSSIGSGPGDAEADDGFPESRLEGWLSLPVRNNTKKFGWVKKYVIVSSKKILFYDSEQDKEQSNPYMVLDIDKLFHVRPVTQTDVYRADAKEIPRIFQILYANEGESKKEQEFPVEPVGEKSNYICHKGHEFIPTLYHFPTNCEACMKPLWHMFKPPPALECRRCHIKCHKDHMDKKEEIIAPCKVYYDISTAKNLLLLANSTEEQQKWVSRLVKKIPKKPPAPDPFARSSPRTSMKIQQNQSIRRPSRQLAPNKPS

- IC50 (ROCK-II; [2]): 8940 nM
- IC50 (Limk1; [3]): 151 nM
SMILES: Cc1cccc(N(CCO)C(=O)Nc2ccc(-c3ncnc4[nH]cc(C)c34)cc2)c1 [Compound 18j, 1-(2-Hydroxyethyl)-3-(4-(5-methyl-7H-pyrrolo[2,3-d]pyrimidin-4-yl)phenyl)-1-m-tolylurea]

- IC50 (ROCK-II; [2]): 1900 nM
SMILES: Cc1c[nH]c2ncnc(-c3ccc(NC(=O)N(CCO)c4cccc(F)c4)cc3)c12 [Compound 18d, 1-(3-Fluorophenyl)-1-(2-hydroxyethyl)-3-(4-(5-methyl-7H-pyrrolo[2,3-d]pyrimidin-4-yl)phenyl)urea]

- IC50 (ROCK-II; [2]): > 10000 nM
SMILES: Cc1ccccc1N(CCO)C(=O)Nc1ccc(-c2ncnc3[nH]cc(C)c23)cc1 [Compound 18i, 1-(2-Hydroxyethyl)-3-(4-(5-methyl-7H-pyrrolo[2,3-d]pyrimidin-4-yl)phenyl)-1-o-tolylurea]

- IC50 (Limk1; read-out: Limk1 IC50): 1090 nM
SMILES: COc1ccc(NC(=O)N(C)c2ccc(-c3ncnc4[nH]cc(C)c34)cc2)cc1 [Compound 14a, 3-(4-Methoxyphenyl)-1-methyl-1-(4-(5-methyl-7H-pyrrolo[2,3-d]pyrimidin-4-yl)phenyl)urea]

- IC50 (ROCK-II; [2]): 1600 nM
SMILES: Cc1c[nH]c2ncnc(-c3ccc(NC(=O)N(CCO)c4ccccc4F)cc3)c12 [Compound 18c, 1-(2-Fluorophenyl)-1-(2-hydroxyethyl)-3-(4-(5-methyl-7H-pyrrolo[2,3-d]pyrimidin-4-yl)phenyl)urea]

- IC50 (ROCK-II; [2]): > 10000 nM
- IC50 (ROCK-II; read-out: ROCK-II IC50): > 10000 nM
SMILES: COc1ccc(N(CCN(C)C)C(=O)Nc2ccc(-c3ncnc4[nH]cc(C)c34)cc2)cc1 [Compound 18q, 1-(2-(Dimethylamino)ethyl)-1-(4-methoxyphenyl)-3-(4-(5-methyl-7H-pyrrolo[2,3-d]pyrimidin-4-yl)phenyl)urea]

- Limk1 inhibition (Limk1): even lower Limk1 inhibitions
SMILES: COc1ccc(NC(=O)N(CCN2CCCC2)c2ccc(-c3ncnc4[nH]cc(C)c34)cc2)cc1 [Compound 14b, 3-(4-Methoxyphenyl)-1-(4-(5-methyl-7H-pyrrolo[2,3-d]pyrimidin-4-yl)phenyl)-1-(2-(pyrrolidin-1-yl)ethyl)urea]

- Limk1 inhibition (Limk1): even lower Limk1 inhibitions
SMILES: COc1ccc(NC(=O)N(CCN2CCCCC2)c2ccc(-c3ncnc4[nH]cc(C)c34)cc2)cc1 [Compound 14c, 3-(4-Methoxyphenyl)-1-(4-(5-methyl-7H-pyrrolo[2,3-d]pyrimidin-4-yl)phenyl)-1-(2-(piperidin-1-yl)ethyl)urea]

Second part, the compound before the results:

SMILES: Cc1c[nH]c2ncnc(-c3ccc(NC(=O)Nc4cccc(C(=O)NC(C)C)c4)cc3)c12 [Compound 7g, N-Isopropyl-3-(3-(4-(5-methyl-7H-pyrrolo[2,3-d]pyrimidin-4-yl)phenyl)ureido)benzamide]
- AUC (iv) [1]: 4.3 µM·h
- Cl (iv) [1]: 9.0 mL/min/kg
- T1/2 (iv) [1]: 1.0 h
- Yd (iv) [1]: 0.3 L/kg
- F (%) (po) [1]: 0%
- Cmax [1]: 8.5 µM

SMILES: Cc1c[nH]c2ncnc(-c3ccc(NC(=O)Nc4cccc(C(=O)NC(C)C)c4)c(C(F)(F)F)c3)c12 [Compound 7j, N-Isopropyl-3-(3-(4-(5-methyl-7H-pyrrolo[2,3-d]pyrimidin-4-yl)-2-(trifluoromethyl)phenyl)ureido)-benzamide]
- IC50 (ROCK-II; read-out: ROCK-II IC50): 976 nM
- IC50 (Limk1; read-out: Limk1 IC50): 60 nM

SMILES: COc1ccc(NC(=O)Nc2ccc(-c3ncnc4[nH]cc(C)c34)cc2)cc1 [Compound 10e, 1-(4-Methoxyphenyl)-3-(4-(5-methyl-7H-pyrrolo[2,3-d]pyrimidin-4-yl)phenyl)urea]
- IC50 (ROCK-II; [4]): > 10000 nM
- IC50 (ROCK-II; read-out: ROCK-II IC50): > 10000 nM

SMILES: Cc1c[nH]c2ncnc(-c3ccc(NC(=O)Nc4cccc(F)c4)cc3)c12 [Compound 10b, 1-(3-Fluorophenyl)-3-(4-(5-methyl-7H-pyrrolo[2,3-d]pyrimidin-4-yl)phenyl)urea]
- IC50 (ROCK-II; [4]): 5420 nM
- IC50 (Limk1; read-out: Limk1 IC50): 315 nM

SMILES: Cc1c[nH]c2ncnc(-c3ccc(NC(=O)Nc4ccccc4)cc3)c12 [Compound 10a, 1-(4-(5-Methyl-7H-pyrrolo[2,3-d]pyrimidin-4-yl)phenyl)-3-phenylurea]
- IC50 (ROCK-II; read-out: ROCK-II IC50): 2360 nM
- AUC (iv) [1]: 14.3 µM·h
- Cl (iv) [1]: 3.4 mL/min/kg
- T1/2 (iv) [1]: 1.6 h
- Yd (iv) [1]: 0.5 L/kg
- F (%) (po) [1]: 16%
- Cmax [1]: 7 µM
- IC50 (Limk1; read-out: Limk1 IC50): 142 nM

SMILES: COc1ccc(N(CCN)C(=O)Nc2ccc(-c3ncnc4[nH]cc(C)c34)cc2)cc1 [Compound 18o, 1-(2-Aminoethyl)-1-(4-methoxyphenyl)-3-(4-(5-methyl-7H-pyrrolo[2,3-d]pyrimidin-4-yl)phenyl)urea]
- AUC (iv) [1]: 1.1 µM·h
- Cl (iv) [1]: 36.0 mL/min/kg
- T1/2 (iv) [1]: 4.6 h
- Yd (iv) [1]: 6.0 L/kg
- F (%) (po) [1]: 0%
- Cmax [1]: 2.2 µM
- IC50 (Limk1; [3]): 27 nM

SMILES: Cc1c[nH]c2ncnc(-c3ccc(NC(=O)Nc4cccc(C(=O)NC(C)C)c4)c(OCCN(C)C)c3)c12 [Compound 7l, 3-(3-(2-(2-(Dimethylamino)ethoxy)-4-(5-methyl-7H-pyrrolo[2,3-d]pyrimidin-4-yl)phenyl)ureido)-N-isopropylbenzamide]
- IC50 (ROCK-II; Table 2, means of ≥2 experiments, read-out: IC50 (nM) ROCK-II): 7080 nM
- IC50 (Limk1; Table 2, means of ≥2 experiments, read-out: IC50 (nM) Limk1): 710 nM

SMILES: Cc1cc2c(-c3ccc(NC(=O)Nc4cccc(C(=O)NC(C)C)c4)cc3)ncnc2[nH]1 [Compound 7h, N-Isopropyl-3-(3-(4-(6-methyl-7H-pyrrolo[2,3-d]pyrimidin-4-yl)phenyl)ureido)benzamide]
- IC50 (ROCK-II; [5]): > 10000 nM
- IC50 (Limk1; [6]): 80 nM

SMILES: CC(C)NC(=O)c1cccc(NC(=O)Nc2ccc(-c3ccncc3)cc2)c1 [Compound 7b, N-Isopropyl-3-(3-(4-(pyridin-4-yl)phenyl)ureido)benzamide]
- IC50 (ROCK-II; [5]): 90 nM
- IC50 (Limk1; [6]): > 10000 nM

SMILES: COc1cccc(NC(=O)Nc2ccc(-c3ncnc4[nH]cc(C)c34)cc2)c1 [Compound 10d, 1-(3-Methoxyphenyl)-3-(4-(5-methyl-7H-pyrrolo[2,3-d]pyrimidin-4-yl)phenyl)urea]
- IC50 (ROCK-II; [4]): 2570 nM
- IC50 (Limk1; [7]): 75 nM

SMILES: CC(C)NC(=O)c1cccc(NC(=O)Nc2ccc(-c3ncnc4[nH]ccc34)cc2)c1 [Compound 3, 3-(3-(4-(7H-pyrrolo[2,3-d]pyrimidin-4-yl)phenyl)ureido)-N-isopropylbenzamide]
- IC50 (ROCK-II; [5]): 1360 nM
- IC50 (Limk1; read-out: Limk1 IC50): 201 nM

SMILES: CC(C)NC(=O)c1cccc(NC(=O)Nc2ccc(-c3cn[nH]c3)cc2)c1 [Compound 7a, 3-(3-(4-(1H-pyrazol-4-yl)phenyl)ureido)-N-isopropylbenzamide]
- IC50 (ROCK-II; [5]): 45 nM
- IC50 (Limk1; [6]): > 10000 nM

SMILES: CC(C)NC(=O)c1cccc(NC(=O)Nc2ccc(-c3ccnc(N)n3)cc2)c1 [Compound 7c, 3-(3-(4-(2-Aminopyrimidin-4-yl)phenyl)ureido)-N-isopropylbenzamide]
- IC50 (ROCK-II; [5]): 166 nM
- IC50 (Limk1; [6]): > 10000 nM

SMILES: Cc1c[nH]c2ncnc(-c3ccc(NC(=O)Nc4ccccn4)cc3)c12 [Compound 10g, 1-[4-(5-Methyl-7H-pyrrolo[2,3-d]pyrimidin-4-yl)-phenyl]-3-pyridin-2-yl-urea]
- IC50 (ROCK-II; [4]): > 10000 nM
- IC50 (Limk1; [7]): 4510 nM

SMILES: COc1ccccc1NC(=O)Nc1ccc(-c2ncnc3[nH]cc(C)c23)cc1 [Compound 10c, 1-(2-Methoxyphenyl)-3-(4-(5-methyl-7H-pyrrolo[2,3-d]pyrimidin-4-yl)phenyl)urea]
- IC50 (ROCK-II; [4]): 6650 nM
- IC50 (Limk1; read-out: Limk1 IC50): 283 nM

SMILES: Cc1c[nH]c2ncnc(-c3ccc(NC(=O)Nc4nccs4)cc3)c12 [Compound 10f, 1-[4-(5-Methyl-7H-pyrrolo[2,3-d]pyrimidin-4-yl)-phenyl]-3-thiazol-2-yl-urea]
- IC50 (ROCK-II; [4]): 2290 nM
- IC50 (Limk1; [7]): 203 nM
